Tests used:
Format in all cases: in vivo
[1] = system: green peach aphid (Myzus persicae); assay: Myzus persicae spray test (MYZUPE); settings: in Brassica rapa, foliar, 120 h
Procedure, shortened: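 Chinese cabbage leaf disks infested with all instars of M. persicae sprayed with compound (acetone/DMF solvent, water with 1000 ppm alkylarylpolyglycol ether emulsifier) at the desired concentration. Percent mortality determined after 5 days; 100% = all aphids killed.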

[2] = system: brown planthopper (Nilaparvata lugens); assay: Nilaparvata lugens spray test; settings: Nilaparvata lugens, in Oryza sativa, 96 h
Procedure, shortened: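 Compound dissolved in acetone/dimethylformamide and diluted in water with 1000 ppm alkylarylpolyglycol ether emulsifier. Rice plants sprayed at the test concentration, then infested with brown planthopper; % mortality read after 4 days (100% = all killed, 0% = none).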

[3] = system: adult Blattella germanica strain PAULINIA; assay: Blattella germanica test (BLTTGE surface treatment & contact assay); settings: 24 hours after contact, read-out: efficacy (mortality); for mortality at 4 mg/m2: surface concentration 4 mg/m^2, 30 min exposure; for mortality at 20 mg/m2: surface concentration 20 mg/m^2, 30 min exposure
Protocol: Blattella germanica Test (BLTTGE Surface Treatment & Contact Assay
(§1) Solvent: Aceton+2000 ppm rapeseed oil methyl ester (RME)
(§2) In order to produce a sufficient, active ingredient containing solution it is necessary to solve the test compound in the solvent-mix (acetone at 2 mg/ml/RME 2000 ppm). This solution is pipetted onto a glazed tile and after evaporation of the acetone, adult animals of the species Blattella germanica strain PAULINIA are placed onto the dried surface. The exposure time is 30 minutes.
Mortality in percent (%) is determined 24 hours after contact of the insects to the treated surface. 100% mortality means that all tested insects are dead, whereas 0% means that no insect died.

[4] = system: adult flies Musca domestica strain WHO-N; assay: Musca domestica test (MUSCDO surface treatment & contact assay); settings: 24 hours after contact, read-out: efficacy (mortality); for mortality at 4 mg/m2: surface concentration 4 mg/m^2, 30 min exposure; for mortality at 20 mg/m2: surface concentration 20 mg/m^2, 30 min exposure
Protocol: Musca domestica Test (MUSCDO Surface Treatment & Contact Assay
as §1
as §2, with “flies” for “animals”, “Musca domestica” for “Blattella germanica”, “WHO-N” for “PAULINIA”, “minutes. Mortality in percent (%) is determined 24 hours after contact of the insects to the treated surface. 100% mortality means that all tested insects are dead, whereas 0% means that no insect died.” for “minutes.”

[5] = system: adult unfed cat fleas (Ctenocephalides felis); assay: Ctenocephalides felis oral test; settings: 48 h, 100 ppm in citrated cattle blood, after 2 days
Protocol: Ctenocephalides felis—Oral Test
(§3) Solvent: Dimethyl Sulfoxide
To produce a suitable preparation of active compound, 10 mg of active compound are dissolved in 0.5 mL solvent, and the concentrate is diluted with citrated cattle blood to the desired concentration.
Approximately 20 adult unfed cat fleas (Ctenocephalides felis) are placed in a flea chamber whose top and bottom is covered with gauze. A chamber whose bottom is sealed with parafilm, is filled with the blood-compound solution and placed on top of the flea chamber, so that the fleas can suck the blood. The blood chamber is heated to 37° C. whereas the flea chamber is kept at room temperature.
After 2 days mortality in % is determined. 100% means all the fleas have been killed; 0% means none of the fleas have been killed.

[6] = system: adult engorged female ticks (Rhipicephalus microplus); assay: Rhipicephalus (Boophilus) microplus injection test; settings: 4 μg/tick, after 7 days
Protocol: Rhipicephalus (Boophilus) Microplus—Injection Test
as §3
To produce a suitable preparation of active compound, 10 mg of active compound are dissolved in 0.5 mL solvent, and the concentrate is diluted with solvent to the desired concentration.
Five adult engorged female ticks (Rhipicephalus microplus) are injected with 1 μL compound solution into the abdomen. The ticks are transferred into replica plates and incubated in a climate chamber.
After 7 days egg deposition of fertile eggs is monitored. Eggs where fertility is not visible are stored in a climate chamber till hatching after about 42 days. An efficacy of 100% means all eggs are infertile; 0% means all eggs are fertile.

[7] = system: adult cat fleas (Ctenocephalides felis); assay: Ctenocephalides felis in-vitro contact test, adult cat flea; settings: Ctenocephalides felis; 1 μg/cm^2 (=100 g/ha), after 48 hours; read-out: efficacy (fleas dead or moribund)
[8] = system: larvae of the southern green stink bug (Nezara viridula); assay: Nezara viridula spray test; settings: Nezara viridula, in Hordeum vulgare, 96 h
Procedure, shortened: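 Barley plants sprayed with compound in acetone/DMF diluted in water with 1000 ppm alkylarylpolyglycol ether emulsifier, then infested with N. viridula larvae. Mortality (%) scored after 4 days; 100% means all bugs killed.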

Row | SMILES | mortality at 100 g/ha [1] [%] | mortality at 500 g/ha [2] [%] | mortality at 4 mg/m2 [3] [%] | mortality at 20 mg/m2 [3] [%] | mortality at 4 mg/m2 [4] [%] | mortality at 20 mg/m2 [4] [%] | mortality at 100 ppm [5] [%] | efficacy (infertile eggs) [6] [%] | pest or weed control at 1 µg/cm2 [7] [%] | mortality at 500 g/ha [8] [%]
1 | C[C@H](NC(=O)c1cc(C(F)(F)F)cc(C(F)(F)F)c1)c1ncnn1-c1cnc(C(=O)N(C)C2CC2)cn1 [Example I-007] | 90 | 100 | 80 to 100 | 80 to 100 | 80 to 100 | 80 to 100 | 100 | 100 | 100 | –
2 | CNC(=O)c1cnc(-n2ncnc2[C@H](C)NC(=O)c2cc(C(F)(F)F)cc(C(F)(F)F)c2)cn1 [Example I-009] | 90 | 100 | 80 to 100 | 80 to 100 | 80 to 100 | 80 to 100 | 100 | 100 | 100 | 100
3 | CNC(=O)c1cnc(-n2ncnc2[C@H](C)NC(=O)c2cc(OC(F)(F)F)cc(C3CC3)c2)cn1 [Example I-021] | 90 | 100 | 80 to 100 | 80 to 100 | 80 to 100 | 80 to 100 | – | – | 100 | 100
4 | C[C@H](NC(=O)c1cc(OC(F)(F)F)cc(C2CC2)c1)c1ncnn1-c1cnc(C(=O)N(C)C)cn1 [Example I-002] | 90 | 90 | – | 80 to 100 | – | 80 to 100 | 100 | 100 | 100 | –
5 | C[C@H](NC(=O)c1cc(C(F)(F)F)cc(C(F)(F)F)c1)c1ncnn1-c1cnc(C(=O)N(C)CC2CC2)cn1 [Example I-008] | 90 | 100 | 80 to 100 | 80 to 100 | 80 to 100 | 80 to 100 | 100 | 100 | 100 | 100

— patent US20240368125A1, “NOVEL PYRAZINYL-TRIAZOLE COMPOUNDS AS PESTICIDES” (Bayer Aktiengesellschaft, priority 2021, published 2024)
